A melting point compilation (Tetko et al.)

melting point [°C] | Structure (SMILES)
-98 | COC(C)=O
51 to 53 | O=C=Nc1cccc(COc2ccccc2)c1
206 | Clc1ccc(-c2cc3ccccc3[nH]2)cc1
210 to 211 | O=C(Nc1ccccc1CCCCc1ccccc1NC(=O)c1ccccc1)c1ccccc1
106 | COc1ccc(-c2nn3c(COc4ccccc4)nnc3s2)cc1OC
183 | OC1C2COC(O2)C(O)C1O (stereo not given)
188 | O=C(c1ccccc1)c1noc(-c2ccccc2)c1S(=O)(=O)c1ccccc1
78 to 86 | O=C1CC[C@@H](CO)N1
99 to 104 | O=C(Oc1c(F)c(F)c(F)c(F)c1F)C1CCN(c2ncnc3ccsc23)CC1
-86 | c1cocn1
222 | CC(CCC(=O)O)C1CCC2C3C(=O)CC4CC5(CCC4(C)C3CC(=O)C12C)OCCO5 (stereo not given)
180 | ON(C=C(Br)c1ccccc1)c1ccccc1
216 | O=C(C1=NOC2C(=O)N(c3cc(Cl)ccc3Cl)C(=O)C12)c1ccc([N+](=O)[O-])cc1 (stereo not given)
78 to 82 | Fc1ccc2nc(C(F)(F)F)cc(Cl)c2c1
57 | BrCc1cccc(-c2cccs2)c1
50 to 53 | FC(F)(F)c1ccc(N2CCCNCC2)nc1
79 to 80 | O=C(NCSCc1ccccc1)c1ccccc1
158 to 163 | O=C(O)c1ccccc1Nc1cccc(F)c1
91 | N#Cc1cc(F)c(Cl)nc1Cl
139 to 140 | COC(=O)c1cc2occc2[nH]1
38 | c1ccc2sncc2c1
166 to 168 | O=c1cc[nH]c2c1cnn2-c1ccccc1

melting point [°C] | Structure (SMILES)
146 | O=C1c2ccccc2C(=O)C1c1ccc(Cl)cc1
278 to 281 | CSc1nc2ncc(C(=O)O)c(N)n2n1
108 to 110 | O=C(OCC1CC1)c1cnc(Cl)nc1C(F)(F)F
288 | C=C1C(=O)C23C(OC)CC4C5(C)CCCC4(COC5)C2C(O)CC1C3O (stereo not given)
222 | NC(=O)c1ccccc1C(N)=O
86 to 88 | Cc1ccc(N2CCCC2=O)cc1
60 | CCS(N)(=O)=O
198 to 201 | O=C(C=NO)Nc1cc(Cl)ccc1Cl
97 to 102 | NC(=O)[C@@H]1CCCN1
90 to 110 | CC(C)(c1ccccc1)C(C)(C)c1ccccc1
157 to 158 | Cc1cc(C(=O)NN)[nH]n1
230 to 232 | CC(=O)c1cc(C#N)c(=O)[nH]c1C
198 to 205 | Nc1cc(C(=O)O)ccc1O
24.4 | CC/C=C(\C)C(=O)O
127 to 128 | c1ccc(CON=C(c2cc3ccccc3o2)c2cc3ccccc3o2)cc1
44 | COC(=O)c1cncc(C)c1
217 | CCOC(=O)C1=C(C)NC(=O)NC1c1ccccc1Cl (stereo not given)
32 to 35 | CCOC(=O)c1ncoc1-c1ccccc1
158 | O=C(O)C(F)=Cc1ccccc1
90 | COC(=O)CNC(SC)=C(C#N)C#N
139 | Nc1ccc(O)cc1F
110 to 111 | Cc1ccc(C(=O)OC2CC(C#N)OC2OC(=O)c2ccc(C)cc2)cc1 (stereo not given)

melting point [°C] | Structure (SMILES)
156 | COc1ccccc1N1CCN(CCCNc2cc(=O)n(C)c(=O)n2C)CC1
47 to 51 | CCOC(=O)Nc1ccccc1
73 to 75 | COC(=O)c1ccc[nH]1
217 | CCCCCCCCCCCCOC1OC(CO)C(OC2OC(CO)C(O)C(O)C2O)C(O)C1O (stereo not given)
50 to 52 | FC(F)(F)c1ccc(N2CCOCC2)c(Br)c1
72 to 82 | CC1(C)c2ccccc2NC1C(=O)O (stereo not given)
88 | OCCN(CCO)Cc1ccc(COc2ccccc2)cc1
112 to 117 | O=C(Cc1ccccc1)c1ccc(O)cc1O
190 | Clc1cc2c(oc3c(Cl)cccc32)c(Cl)c1Cl
36 | CC1(C)CC(=O)CC(C)(C)N1
40 | ClC1=C(Cl)C(Cl)(Cl)C(Cl)(Cl)C1(Cl)Cl
186 | O=Cc1ccccc1/C=C/c1ccc([N+](=O)[O-])cc1[N+](=O)[O-]
151 | O=C1NCc2ccccc21
118 | O=C(NCN1CCOCC1)c1cnccn1
-8.5 | CCOc1ccc(F)cc1
110 to 114 | N[C@H](CO)[C@H](O)c1ccccc1
35 | Cc1ccc(CO)cc1F
264 to 266 | O=C1C(=Cc2ccc(-c3ccc(Cl)cc3)o2)CCC1=Cc1ccc(-c2ccc(Cl)cc2)o1
148 | O=C(C=CN(O)c1ccccc1)c1ccc2c(c1)CCCC2
130 to 131 | COC(=O)c1sccc1N1C(=O)C=CC1=O

The next lines start with the compound.

Structure (SMILES) | melting point [°C]
COC(=O)C1=C(C)NC(C)=C(C(=O)OC)C1c1ccc(OC)cc1 | 173 to 177
CC(C)(C)OC(=O)N1CCN(C(=O)OCC2c3ccccc3-c3ccccc32)CC1C(=O)O (stereo not given) | 156 to 158
CCOC(=O)C(CSC(=O)C(C)(C)Br)NC(C)=O (stereo not given) | > 20
O=C(O)CC(c1ccccc1)c1ccccc1 | 150 to 155
COc1ccc2cc(-c3ccn[nH]3)ccc2c1 | 201
Oc1cc(C(F)(F)F)nc(S)n1 | 251
Cc1ccc2c(c1C)CCC1C2CC=C2CC(C(=O)O)CCC21C (stereo not given) | 162
CCOc1ccc2c3c1OC1C(O)C=CC4C(C2)N(C)CCC341 (stereo not given) | 200
Cc1ccccc1N1CCNCC1 | 48 to 52
CC(C)(C)C(=O)OCC(N)=S | 84 to 85
C#CCCCCCCC(=O)O | 19
CC(C)NC(C)C | -61
O=[N+]([O-])c1ccccc1/C=C/c1ccccc1 | 73
Cc1cc(=O)oc2cc(OC3OCC(O)C(O)C3O)ccc12 (stereo not given) | 223
Nc1ccc(C(F)(F)F)c(F)c1 | 56
O=C(NC(=C(NC(=O)c1ccccc1)c1ccccc1)c1ccccc1)c1ccccc1 | 100
CCOc1ccccc1OS(=O)(=O)NC(=O)Nc1nc(OC)cc(OC)n1 | 150
CCOC(=O)c1c[nH]c(=S)[nH]c1=O | 252
ON=C(NN=C(Cl)C(F)(F)F)C(F)(F)F | 119
CNCC(=O)O | 208
CC(=O)/C=C/c1cc(N(C)C)ccc1Cc1ccc(N(C)C)cc1I | 164
O=c1cc2oc3cc(O)c(O)cc3c(-c3ccccc3)c-2cc1O | 300

Structure (SMILES) | melting point [°C]
Cc1nc(-c2cccc(C(=O)O)c2)no1 | 223 to 225
COc1ncc(F)c2nc(S(=O)(=O)Nc3c(F)cccc3F)nn12 | 194
COc1ccc(F)cc1CBr | 60
CC1CC(=Cc2ccccc2)C(=O)C(=Cc2ccccc2)C1 (stereo not given) | 100 to 101
Cc1cc(C)c2c(c1C)C(=O)C2 | 73
O=C(Cl)c1cccnc1Sc1ccc(Cl)cc1 | 100 to 103
Nc1ncnc2c1ncn2C1OC2COP(=O)(O)OC2C1O (stereo not given) | 260
CN(c1c(F)c(F)c(-c2c(F)c(F)c(F)c(F)c2F)c(F)c1F)[N+](=O)[O-] | 140
CC(C)(C(=O)O)C1=CCC2(C)C(CCC3C4CCC(O)C4(C)CCC32)C1 (stereo not given) | 264
CN(C)c1ccc(C=CC(=O)c2ccccc2)cc1 | 114
CCC(C)(C)C(=O)O | -14
C/C(OCCc1ccc([N+](=O)[O-])cc1)=C(\C#N)c1ccccc1 | 138
C1CC12CC2 | -135
COC(=O)C1=C(C)NC(C)=C([N+](=O)[O-])C1c1ccccc1C(F)(F)F (stereo not given) | 166 to 172
C1CNCCCNCCNCCCNC1 | 98 to 102
CCCCCCCCCCCCCCCCCC1CCCCC1 | 38
C=CC(=O)N1CCN(C(=O)C=C)CC1 | 93
CCOC(=O)c1c(SC)nn(C(=O)c2ccccc2)c1N | 95
Oc1cc(F)cc(F)c1 | 53
CC1CS1 (stereo not given) | -91
Sc1nccn1-c1cc(Cl)ccc1Cl | 273
NNC(=O)c1cc2cc(OCc3ccccc3)ccc2[nH]1 | 219 to 221

Structure (SMILES) | melting point [°C]
CC(=O)OC1(C(C)=O)CCC2C3C=C(Cl)C4=CC(=O)C=CC4(C)C3CCC21C (stereo not given) | 168
OCc1ccc(CN2CCOCC2)cc1 | 94
CCCC=NO | -29.5
CCCCCCC(O)C1C2=C(CC(C(O)C3CC=CC(=O)O3)CC3=C(C(=O)OC3=O)C1O)C(=O)OC2=O (stereo not given) | 170
CN(C)c1ccc(C(C=C2C=Cc3ccccc3N2N=O)c2ccccc2)cc1 (stereo not given) | 196
CC(=O)Oc1nn(-c2ccccc2)cc1Br | 82 to 85
CC(=O)OC1CCC2(C)C(C1)CC1(OCCO1)C1C3CCC(=O)C3(C)CCC12 (stereo not given) | 240
CC(=O)N[C@@H](Cc1ccccc1)C(=O)N[C@@H](Cc1cc(I)c(O)c(I)c1)C(=O)O | 219 to 221
O=C(O)CC1CC(=O)OC1C(=O)O (stereo not given) | 159
C=COCCCCCCCCCC | -41
CCOC(=O)C(C#N)=Cc1ccc(-c2ccccc2OC)o1 | 120 to 121
CCc1c[nH]c(=O)[nH]c1=O | 309
Cc1cn(CCC(=O)O)c2ccccc12 | 87 to 88
Brc1cccc2cc[nH]c12 | 46 to 47
CCCCCCCCOC(=O)c1ccccc1C(=O)OCCCCCCCC(C)C | 98
Cc1cc(OC(=O)N(C)C)n(-c2ccccc2)n1 | 50
N#Cc1ccc2nonc2c1 | 86 to 88
FC(F)(F)C(F)(F)C(F)(F)C(F)(F)C(F)(F)F | -100
O=c1ccc2cc3ccoc3c(O)c2o1 | 252
CC(C)(C)[N+](=O)[O-] | 26.2
COc1nc(N)nc(SC)n1 | 200 to 202
Cc1ccccc1S | 15
